The values below come from patent US7678583B2, “Method of lysis of erythrocytes” (Immunotech, S.A., priority 2000, dated 2010).

Data set [1] in a line: Experiment 2: conversion of ammonium carbamate into ammonium carbonate, precipitation in 85% of acetone. The format is biochemical.
Data set [2] relates to erythrocytes. The experiment in a line: Experiment 3: speed of lysis with carbonic anhydrases from different sources in lysis reagent according to Example 1. The settings on record: Example 1 reagent, carbonic anhydrase replaced by preparation at 5000 W-A U/l; OD at 700 nm; time to minimum level. It counts as cell-based. As to the method: In a lysis reagent according to Example 1, the component carbonic anhydrase at 50,000 W-A U/I was replaced by preparations of carbonic anhydrase as indicated in the table, each at 5000 W-A U/I. The lysis process was tracked spectrophotometrically (measurement of the OD at 700 nm). The duration of the lysis is determined by the time necessary to achieve a minimum level.

Take `N.NC(=O)O` [100 mM NH2CO2NH4, ammonium carbamate, reference compound]: the “Duration before complete precipitation in 85% of acetone” value in data set [1] (carbonate precipitates and not the carbamate) is reported as 240 min.
Regarding “CAI, C-4396: carbonic anhydrase I preparation, Sigma, human”, the “Speed of lysis at 5000 W-A U/l” value in data set [2] was determined as 5.06 min.
Still for that read-out and setting: then “CAI, C-5290: carbonic anhydrase I preparation, Sigma, human”, with 3.24 min.
Turning to “CAII, C-2522: carbonic anhydrase II preparation, Sigma, bovine”, the “Speed of lysis at 5000 W-A U/l” value in data set [2] was 8.51 min.
For carbonic anhydrase, in data set [1], the “catalysis of the conversion carbonate / carbamate+H2O (in words)” value is reported as “also catalyses the conversion carbonate”.
